Experimental data: paper PMC10331583, “Control of fibrosis with enhanced safety via asymmetric inhibition of prolyl‐tRNA synthetase 1” (EMBO Molecular Medicine, 2023)
Where “and” joins values, the source holds several entries; their conditions need not be identical. Equal entries are not always repeated. Where two headings read alike, the source gives them in different places.

Assays:
[1] = system: WI‐26 VA4 cells; assay: CellTiter‐Glo assay (cytotoxicity)
Procedure: After 24 h, the cells were incubated with various concentrations of compounds for 48 h. The level of ATP as a measure of cell viability was determined using a CellTiter‐Glo® luminescent cell viability assay kit (Promega, G7571) following the manufacturer's instructions.
WI‐26 VA4 cells were seeded at 1.2 × 10^4 cells/well in 96‐well white plates. After 24 h, the cells were incubated with the indicated concentrations of compounds for 72 h. The viability was determined as described above.

[2] = system: WI‐26 VA4 cells; assay: Collagen ELISA (secreted pro‐collagen I)
[3] = system: WI‐26 VA4 cells stably expressing PARS1 FA/EA/RL mutant; assay: Collagen ELISA in cells stably expressing PARS1 mutant; settings: for Collagen level, average: average of 4 experiments; for Collagen level, single replicates: replicates of Experiments #1-#4
[4] = log(inhibitor) vs. response, variable slope (four parameters), concentration in nM
[5] = WI-26 VA4 Flag-PARS1 FA/EA/RL, 0.3 nM
[6] = WI-26 VA4 Flag-PARS1 FA/EA/RL, 1 nM
[7] = WI-26 VA4 Flag-PARS1 FA/EA/RL, 3 nM
[8] = WI-26 VA4 Flag-PARS1 FA/EA/RL, 10 nM
[9] = WI-26 VA4 Flag-PARS1 FA/EA/RL, 30 nM
[10] = WI-26 VA4 Flag-PARS1 FA/EA/RL, 100 nM
[11] = WI-26 VA4 Flag-PARS1 FA/EA/RL, 300 nM
[12] = WI-26 VA4 Flag-PARS1 FA/EA/RL, 1000 nM

**Q.** How did the activity at 10 µM ([1]; Homo sapiens, WI26VA4, read-out: CellTiter-Glo % of control, 10000 nM, Experiment #1, replicates) turn out when `O=C(CC1NCCCC1O)Cn1cnc2cc(Br)c(Cl)cc2c1=O` (centres unmarked) [HF, Halofuginone, reference compound] was run?
**A.** 1.85%

**Q.** And the activity at 10 µM ([1]; Homo sapiens, WI26VA4, read-out: CellTiter-Glo % of control, 10000 nM, Experiment #2, replicates)?
**A.** 4.64%

**Q.** And the activity at 30 µM ([1]; Homo sapiens, WI26VA4, read-out: CellTiter-Glo % of control, 30000 nM, Experiment #2, replicates)?
**A.** 1.49%

**Q.** What about the activity at 0.0003 µM ([1]; Homo sapiens, WI26VA4, read-out: CellTiter-Glo % of control, average, 0.3 nM, average) of the same molecule?
**A.** 103%

**Q.** What about the activity at 0.001 µM ([1]; Homo sapiens, WI26VA4, read-out: CellTiter-Glo % of control, average, 1 nM, average) of the same molecule?
**A.** 102%

**Q.** And the activity at 0.01 µM ([1]; Homo sapiens, WI26VA4, read-out: CellTiter-Glo % of control, average, 10 nM, average)?
**A.** 92.4%

**Q.** And the activity at 0.03 µM ([1]; Homo sapiens, WI26VA4, read-out: CellTiter-Glo % of control, average, 30 nM, average)?
**A.** 77.3%

**Q.** What about the activity at 0.1 µM ([1]; Homo sapiens, WI26VA4, read-out: CellTiter-Glo % of control, average, 100 nM, average) of the same molecule?
**A.** 30.6%

**Q.** And the activity at 0.3 µM ([1]; Homo sapiens, WI26VA4, read-out: CellTiter-Glo % of control, average, 300 nM, average)?
**A.** 18.1%

**Q.** And the activity at 1 µM ([1]; Homo sapiens, WI26VA4, read-out: CellTiter-Glo % of control, average, 1000 nM, average)?
**A.** 23.7%

**Q.** And the activity at 3 µM ([1]; Homo sapiens, WI26VA4, read-out: CellTiter-Glo % of control, average, 3000 nM, average)?
**A.** 10.2%

**Q.** And the activity at 10 µM ([1]; Homo sapiens, WI26VA4, read-out: CellTiter-Glo % of control, average, 10000 nM, average)?
**A.** 3.39%

**Q.** What about the activity at 30 µM ([1]; Homo sapiens, WI26VA4, read-out: CellTiter-Glo % of control, average, 30000 nM, average) of the same molecule?
**A.** 1.53%

**Q.** What about the activity at 100 µM ([1]; Homo sapiens, WI26VA4, read-out: CellTiter-Glo % of control, average, 100000 nM, average) of the same molecule?
**A.** 0.00424%

**Q.** What about the “CellTiter-Glo LogIC50 (best-fit value)” value [1, 4] of the same molecule?
**A.** 1.708

**Q.** What about the IC50 ([2]; Homo sapiens, WI26VA4, 72 h, read-out: IC50 for collagen level, TGF‐β 2 ng/ml, 72 h (Fig 1B)) of the same molecule?
**A.** 15.2 nM

**Q.** And the IC50 ([2]; Homo sapiens, WI26VA4, read-out: Collagen IC50 (best-fit value), log(inhibitor) vs. response, variable slope (four parameters) (converted))?
**A.** 15.2 nM

**Q.** And the activity at 1 µM ([2]; Homo sapiens, WI26VA4, read-out: Collagen, % of control (single replicates per experiment), 1000 nM)?
**A.** 3.91%

**Q.** What about the activity at 0.0003 µM ([2]; Homo sapiens, WI26VA4, read-out: Collagen, % of control, average, 0.3 nM, average) of the same molecule?
**A.** 96.4%

**Q.** And the activity at 0.001 µM ([2]; Homo sapiens, WI26VA4, read-out: Collagen, % of control, average, 1 nM, average)?
**A.** 103%

**Q.** And the activity at 0.003 µM ([2]; Homo sapiens, WI26VA4, read-out: Collagen, % of control, average, 3 nM, average)?
**A.** 101%

**Q.** And the activity at 0.01 µM ([2]; Homo sapiens, WI26VA4, read-out: Collagen, % of control, average, 10 nM, average)?
**A.** 71.9%

**Q.** What about the activity at 0.03 µM ([2]; Homo sapiens, WI26VA4, read-out: Collagen, % of control, average, 30 nM, average) of the same molecule?
**A.** 21.6%

**Q.** What about the activity at 0.1 µM ([2]; Homo sapiens, WI26VA4, read-out: Collagen, % of control, average, 100 nM, average) of the same molecule?
**A.** 3.57%

**Q.** And the activity at 0.3 µM ([2]; Homo sapiens, WI26VA4, read-out: Collagen, % of control, average, 300 nM, average)?
**A.** 2.57%

**Q.** What about the activity at 1 µM ([2]; Homo sapiens, WI26VA4, read-out: Collagen, % of control, average, 1000 nM, average) of the same molecule?
**A.** 3.27%

**Q.** What about the activity at 0.0003 µM ([2]; Homo sapiens, WI26VA4, read-out: Efficacy, % of control, average, 0.3 nM) of the same molecule?
**A.** 104%

**Q.** And the activity at 0.001 µM ([2]; Homo sapiens, WI26VA4, read-out: Efficacy, % of control, average, 1 nM)?
**A.** 104%

**Q.** What about the activity at 0.003 µM ([2]; Homo sapiens, WI26VA4, read-out: Efficacy, % of control, average, 3 nM) of the same molecule?
**A.** 108%

**Q.** And the activity at 0.01 µM ([2]; Homo sapiens, WI26VA4, read-out: Efficacy, % of control, average, 10 nM)?
**A.** 73%

**Q.** What about the activity at 0.03 µM ([2]; Homo sapiens, WI26VA4, read-out: Efficacy, % of control, average, 30 nM) of the same molecule?
**A.** 24.9%

**Q.** And the activity at 0.1 µM ([2]; Homo sapiens, WI26VA4, read-out: Efficacy, % of control, average, 100 nM)?
**A.** 3.73%

**Q.** What about the activity at 0.3 µM ([2]; Homo sapiens, WI26VA4, read-out: Efficacy, % of control, average, 300 nM) of the same molecule?
**A.** 2.78%

**Q.** What about the activity at 1 µM ([2]; Homo sapiens, WI26VA4, read-out: Efficacy, % of control, average, 1000 nM) of the same molecule?
**A.** 2.54%

**Q.** What about the activity at 0.0003 µM ([2]; Homo sapiens, WI26VA4, read-out: Efficacy, % of control, single replicate, 0.3 nM) of the same molecule?
**A.** 114%

**Q.** And the activity at 0.001 µM ([2]; Homo sapiens, WI26VA4, read-out: Efficacy, % of control, single replicate, 1 nM)?
**A.** 112%

**Q.** And the activity at 1 µM ([2]; Homo sapiens, WI26VA4, read-out: Efficacy, % of control, single replicate, 1000 nM)?
**A.** 2.31%

**Q.** What about the “Collagen HillSlope (best-fit value)” value ([2]; log(inhibitor) vs. response, variable slope (four parameters)) of the same molecule?
**A.** -2.183

**Q.** What about the “Collagen LogIC50 (best-fit value)” value [2, 4] of the same molecule?
**A.** 1.183

**Q.** And the IC50 ([2]; read-out: IC50 for collagen level, TGF‐β 2 ng/ml, 72 h (Fig 1B))?
**A.** 15 nM

**Q.** What about the IC50 ([3]; Homo sapiens, WI26VA4, read-out: IC50, collagen level) of the same molecule?
**A.** 15.4 nM

**Q.** What about the “Collagen level, average” value [3, 5] of the same molecule?
**A.** 101.54 % of control

**Q.** And the “Collagen level, single replicates” value [3, 5]?
**A.** 102.13 % of control and 120.79 % of control and 96.95 % of control and 94.78 % of control and 97.01 % of control and 91.61 % of control and 85.22 % of control and 99.08 % of control and 88.51 % of control and 103.40 % of control and 115.28 % of control and 123.69 % of control

**Q.** What about the “Collagen level, average” value [3, 6] of the same molecule?
**A.** 101.93 % of control

**Q.** What about the “Collagen level, single replicates” value [3, 6] of the same molecule?
**A.** 100.26 % of control and 124.52 % of control and 104.32 % of control and 114.35 % of control and 95.53 % of control and 102.09 % of control and 95.23 % of control and 96.53 % of control and 98.60 % of control and 104.60 % of control and 92.58 % of control and 94.60 % of control

**Q.** What about the “Collagen level, average” value [3, 7] of the same molecule?
**A.** 97.24 % of control

**Q.** And the “Collagen level, single replicates” value [3, 7]?
**A.** 74.39 % of control and 119.08 % of control and 111.81 % of control and 77.98 % of control and 96.46 % of control and 94.83 % of control and 78.75 % of control and 99.39 % of control and 89.90 % of control and 103.30 % of control and 102.16 % of control and 118.87 % of control

**Q.** What about the “Collagen level, average” value [3, 8] of the same molecule?
**A.** 70.83 % of control

**Q.** And the “Collagen level, single replicates” value [3, 8]?
**A.** 64.31 % of control and 91.60 % of control and 60.26 % of control and 74.23 % of control and 77.87 % of control and 69.39 % of control and 82.84 % of control and 75.26 % of control and 63.48 % of control and 78.01 % of control and 54.94 % of control and 57.79 % of control

**Q.** What about the “Collagen level, average” value [3, 9] of the same molecule?
**A.** 26.11 % of control

**Q.** What about the “Collagen level, single replicates” value [3, 9] of the same molecule?
**A.** 25.57 % of control and 24.68 % of control and 22.36 % of control and 32.03 % of control and 25.38 % of control and 25.85 % of control and 26.88 % of control and 24.32 % of control and 26.43 % of control and 20.94 % of control and 29.04 % of control and 29.85 % of control

**Q.** What about the “Collagen level, average” value [3, 10] of the same molecule?
**A.** 4.47 % of control

**Q.** What about the “Collagen level, single replicates” value [3, 10] of the same molecule?
**A.** 4.44 % of control and 3.82 % of control and 4.24 % of control and 4.79 % of control and 5.13 % of control and 4.94 % of control and 4.02 % of control and 4.80 % of control and 4.41 % of control and 3.44 % of control and 4.93 % of control and 4.63 % of control

**Q.** And the “Collagen level, average” value [3, 11]?
**A.** 3.35 % of control

**Q.** And the “Collagen level, single replicates” value [3, 11]?
**A.** 2.94 % of control and 2.13 % of control and 2.73 % of control and 2.78 % of control and 5.38 % of control and 5.19 % of control and 3.51 % of control and 3.53 % of control and 4.16 % of control and 2.06 % of control and 3.52 % of control and 2.22 % of control

**Q.** And the “Collagen level, average” value [3, 12]?
**A.** 4.10 % of control

**Q.** What about the “Collagen level, single replicates” value [3, 12] of the same molecule?
**A.** 4.74 % of control and 3.22 % of control and 4.71 % of control and 3.16 % of control and 4.63 % of control and 4.53 % of control (2×) and 4.37 % of control and 4.67 % of control and 2.44 % of control and 4.55 % of control and 3.67 % of control

**Q.** What about the “HillSlope, collagen level” value ([3]; WI-26 VA4 Flag-PARS1 FA/EA/RL, four-parameter fit) of the same molecule?
**A.** -1.829

**Q.** What about the “LogIC50, collagen level” value ([3]; WI-26 VA4 Flag-PARS1 FA/EA/RL, log of concentration in nM, four-parameter fit) of the same molecule?
**A.** 1.188
